Here are results for 28 compounds from patent US20220281821A1, “INDAZOLE COMPOUNDS AND THEIR PHARMACEUTICAL COMPOSITIONS” (Jinan University, priority 2019, published 2022).

Common to all, as to format: cell-based, mouse
One test addresses T1, BaF3-CD74-NTRK1 (Homo sapiens, UniProt P04629).
T1 construct: fused on or other part: P04233 (HLA class II histocompatibility antigen gamma chain)
Kind of test: Cell proliferation inhibition (CCK-8), BaF3-CD74-NTRK1 stable strain. The conditions noted are these: BaF3-CD74-NTRK1, 72 hours. On the procedure: (§1) The brief steps of stable strain construction are as follows: construct a pCDNA3.1(+) plasmid vector carrying genes such as CD74-NTRK1, ETV6-NTRK2 and ETV6-NTRK3; the plasmid was electroporated into Ba/F3 cells using the Amaxa® Cell Line Nucleofector® Kit V; 48 hours after electroporated, G418 with a final concentration of 1000 μg/ml was added for screening for two weeks, and then IL3 was removed, and continued screening to obtain polyclonal stable strains; then single clones were selected by a limiting dilution method. The stable strains were then identified using positive drugs, WB and gene sequencing; and the monoclonal clones that were identified as completely correct may be used for the study of cell proliferation inhibitory activity of inhibitors.
(§2) Cell proliferation inhibition activity study: the cells in the logarithmic growth phase were seeded into 96-well plates at 8000-12000 cells/well, and inhibitors at different concentrations (0-10 μM) were added the next day, and incubation was continued for 72 hours; then 10 μL of CCK-8 reagent was added to each well, and the incubation was continued for 1-3 hours; and then use a super microplate reader to measure their absorbance values at 450 nm and 650 nm. The half-inhibition concentration (IC50) was calculated using GraphPad Prism 8.0.0.

A further test concerns the target T2, BaF3-ETV6-NTRK2 (Homo sapiens, UniProt Q16620).
T2 construct: fused on or other part: P41212 (Transcription factor ETV6)
Kind of test: Cell proliferation inhibition (CCK-8), BaF3-ETV6-NTRK2 stable strain. The settings on record: BaF3-ETV6-NTRK2, 72 hours. The method, then: as §1, §2

A further test has as its target T3, BaF3-ETV6-NTRK3 (Homo sapiens, UniProt Q16288).
T3 construct: fused on or other part: P41212 (Transcription factor ETV6)
Put plainly: Cell proliferation inhibition (CCK-8), BaF3-ETV6-NTRK3 stable strain. The conditions noted are these: BaF3-ETV6-NTRK3, 72 hours. The method, then:
as §1, §2

Some results are limits rather than exact numbers.

T2 sequence (Q16620 538-822 limits assumed): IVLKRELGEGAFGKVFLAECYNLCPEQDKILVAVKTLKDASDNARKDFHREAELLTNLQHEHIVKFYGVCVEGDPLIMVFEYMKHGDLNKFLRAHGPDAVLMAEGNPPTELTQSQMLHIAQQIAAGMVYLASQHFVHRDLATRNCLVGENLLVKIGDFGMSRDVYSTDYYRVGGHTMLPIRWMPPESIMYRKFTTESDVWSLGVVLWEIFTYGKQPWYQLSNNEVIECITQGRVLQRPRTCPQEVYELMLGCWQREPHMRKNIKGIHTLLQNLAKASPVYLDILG
T1 sequence (P04629 510-796 limits assumed): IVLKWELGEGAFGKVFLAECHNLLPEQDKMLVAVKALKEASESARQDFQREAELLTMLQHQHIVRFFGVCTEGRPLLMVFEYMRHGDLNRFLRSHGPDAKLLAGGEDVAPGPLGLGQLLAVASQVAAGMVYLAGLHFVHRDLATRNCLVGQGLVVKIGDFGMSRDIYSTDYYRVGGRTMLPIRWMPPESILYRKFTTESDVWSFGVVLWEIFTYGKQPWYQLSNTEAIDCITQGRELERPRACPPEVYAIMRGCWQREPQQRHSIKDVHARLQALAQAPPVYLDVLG
T3 sequence (Q16288 whole entry, the tested form may be a part): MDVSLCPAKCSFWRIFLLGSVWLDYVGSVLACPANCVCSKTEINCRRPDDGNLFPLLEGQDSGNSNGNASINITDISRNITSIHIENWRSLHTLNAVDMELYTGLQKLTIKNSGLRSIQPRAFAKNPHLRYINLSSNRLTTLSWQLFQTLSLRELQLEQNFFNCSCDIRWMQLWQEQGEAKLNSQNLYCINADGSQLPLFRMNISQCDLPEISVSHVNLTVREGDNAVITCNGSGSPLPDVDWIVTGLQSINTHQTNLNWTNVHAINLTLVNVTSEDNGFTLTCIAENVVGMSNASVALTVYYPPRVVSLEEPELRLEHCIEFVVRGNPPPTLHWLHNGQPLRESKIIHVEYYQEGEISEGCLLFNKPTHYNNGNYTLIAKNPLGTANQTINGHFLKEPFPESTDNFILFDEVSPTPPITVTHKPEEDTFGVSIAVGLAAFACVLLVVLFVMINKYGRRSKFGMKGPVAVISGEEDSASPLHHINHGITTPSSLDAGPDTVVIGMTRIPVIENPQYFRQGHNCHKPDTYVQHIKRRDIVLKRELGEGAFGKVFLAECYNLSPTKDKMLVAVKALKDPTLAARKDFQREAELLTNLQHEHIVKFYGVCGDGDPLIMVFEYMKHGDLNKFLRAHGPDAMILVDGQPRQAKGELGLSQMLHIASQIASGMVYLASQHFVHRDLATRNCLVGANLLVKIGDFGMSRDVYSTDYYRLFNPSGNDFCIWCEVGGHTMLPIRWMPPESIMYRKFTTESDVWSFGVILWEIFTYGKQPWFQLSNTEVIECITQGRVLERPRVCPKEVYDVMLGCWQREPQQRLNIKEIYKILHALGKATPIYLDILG

As for `C[C@@H](Nc1ccc2[nH]nc(/C=C/c3ccccn3)c2n1)c1cc(F)cc(F)c1` [DYX-332, (R,E)-N-(1-(3,5-difluorophenyl)ethyl)-3-(2-(pyridin-2-yl)vinyl)-1H-pyrazolo[4,3-b]pyridin-5-amine], the figures for the IC50 at BaF3-CD74-NTRK1, at BaF3-ETV6-NTRK2 and against BaF3-ETV6-NTRK3 were 9.9 nM, 146 nM and 46.5 nM, respectively.
The matching figures for `C[C@@H](Nc1ccc2[nH]nc(/C=C/c3cnn(CCO)c3)c2c1)c1cccc(F)c1` [DYX-335, (R,E)-2-(4-(2-(5-((1-(3-fluorophenyl)ethyl)amino)-1H-indazol-3-yl)vinyl)-1H-pyrazol-1-yl)-1-ethanol]: 0.6 nM, 10.7 nM and 3.3 nM.
With `C[C@@H](Nc1cc2c(/C=C/c3ccccn3)n[nH]c2cn1)c1cc(F)cc(F)c1` [DYX-340, (R,E)-N-(1-(3,5-difluorophenyl)ethyl)-3-(2-(pyridin-2-yl)vinyl)-1H-pyrazolo[3,4-c]pyridin-5-amine], the concentration for half-maximal inhibition (IC50) against BaF3-CD74-NTRK1 came to 18.7 nM; against BaF3-ETV6-NTRK2, 160 nM; against BaF3-ETV6-NTRK3, 68 nM.
As for `C[C@@H](Nc1ccc2[nH]nc(/C=C/c3cnn(C)c3)c2c1)c1cc(F)cc(F)c1` [DYX-346, (R,E)-N-(1-(3,5-difluorophenyl)ethyl)-3-(2-(1-methyl-1H-pyrazol-4-yl)vinyl)-1H-indazol-5-amine], the IC50 was 6.5 nM on BaF3-CD74-NTRK1, 9.5 nM on BaF3-ETV6-NTRK2 and 3.1 nM against BaF3-ETV6-NTRK3.
With `CCn1cc(/C=C/c2n[nH]c3ccc(N[C@H](C)c4cc(F)cc(F)c4)cc23)cn1` [DYX-349, (R,E)-N-(1-(3,5-difluorophenyl)ethyl)-3-(2-(1-ethyl-1H-pyrazol-4-yl)vinyl)-1H-indazol-5-amine], the figures for the IC50 against BaF3-CD74-NTRK1, against BaF3-ETV6-NTRK2 and at BaF3-ETV6-NTRK3 were 7.4 nM, 10.7 nM and 4.3 nM, respectively.
Take `Fc1cc(Cl)cc(CNc2ccc3[nH]nc(/C=C/c4ccccn4)c3c2)c1` [DYX-400, (E)-N-(3-fluoro-5-chlorobenzyl)-3-(2-(pyridin-2-yl)vinyl)-1H-indazol-5-amine]: the IC50 against BaF3-CD74-NTRK1 was 59 nM; on BaF3-ETV6-NTRK2, 154 nM; against BaF3-ETV6-NTRK3 it was 41.1 nM.
The matching figures for `Cc1cc(F)cc(CNc2ccc3[nH]nc(/C=C/c4ccccn4)c3c2)c1` [DYX-401, (E)-N-(3-fluoro-5-methylbenzyl)-3-(2-(pyridin-2-yl)vinyl)-1H-indazol-5-amine]: 113 nM, 448 nM and 112 nM.
Regarding `N#Cc1cc(F)cc(CNc2ccc3[nH]nc(/C=C/c4ccccn4)c3c2)c1` [DYX-402, (E)-3-fluoro-5-(((3-(2-(pyridin-2-yl)vinyl)-1H-indazol-5-yl)amino)methyl)benzonitrile], the IC50 against BaF3-CD74-NTRK1 turned out to be 28.2 nM; against BaF3-ETV6-NTRK2, 53.5 nM; against BaF3-ETV6-NTRK3, 22.6 nM.
With `COc1cc(F)cc(CNc2ccc3[nH]nc(/C=C/c4ccccn4)c3c2)c1` [DYX-403, (E)-N-(3-fluoro-5-methoxybenzyl)-3-(2-(pyridin-2-yl)vinyl)-1H-indazol-5-amine], the IC50 worked out at 52.6 nM against BaF3-CD74-NTRK1, 137 nM against BaF3-ETV6-NTRK2 and 180 nM on BaF3-ETV6-NTRK3.
In the case of `C[C@@H](Nc1ccc2[nH]nc(/C=C/c3cccnc3)c2c1)c1cc(F)cc(F)c1` [DYX-409, (R,E)-N-(1-(3,5-difluorophenyl)ethyl)-3-(2-(pyridin-3-yl)vinyl)-1H-indazol-5-amine], the half-inhibitory concentration (IC50) came to 6.4 nM against BaF3-CD74-NTRK1, 36.9 nM on BaF3-ETV6-NTRK2 and 7.7 nM against BaF3-ETV6-NTRK3.
`C[C@@H](Nc1ccc2[nH]nc(/C=C/c3ccncc3)c2c1)c1cc(F)cc(F)c1` [DYX-410, (R,E)-N-(1-(3,5-difluorophenyl)ethyl)-3-(2-(pyridin-4-yl)vinyl)-1H-indazol-5-amine]: the values for the IC50 against BaF3-CD74-NTRK1, at BaF3-ETV6-NTRK2 and at BaF3-ETV6-NTRK3 were 10.3 nM, 11.7 nM and 3.5 nM, respectively.
With `C[C@@H](Nc1ccc2[nH]nc(/C=C/c3cnccn3)c2c1)c1cc(F)cc(F)c1` [DYX-411, (R,E)-N-(1-(3,5-difluorophenyl)ethyl)-3-(2-(pyrazin-2-yl)vinyl)-1H-indazol-5-amine], the IC50 against BaF3-CD74-NTRK1 came to 35.7 nM; at BaF3-ETV6-NTRK2 it was 38 nM; on BaF3-ETV6-NTRK3 it was 11 nM.
In the case of `C[C@@H](Nc1ccc2[nH]nc(/C=C/c3ccccc3)c2c1)c1cc(F)cc(F)c1` [DYX-412, (R,E)-N-(1-(3,5-difluorophenyl)ethyl)-3-styryl-1H-indazol-5-amine], the IC50 at BaF3-CD74-NTRK1 is 110 nM; against BaF3-ETV6-NTRK2, 115 nM; at BaF3-ETV6-NTRK3, 35.6 nM.
Take `Fc1ccccc1CNc1ccc2[nH]nc(/C=C/c3ccccn3)c2c1` [DYX-413, (E)-N-(2-fluorobenzyl)-3-(2-(pyridin-2-yl)vinyl)-1H-indazol-5-amine]: the figures for the IC50 against BaF3-CD74-NTRK1, at BaF3-ETV6-NTRK2 and at BaF3-ETV6-NTRK3 were 40.8 nM, 376 nM and 161 nM, respectively.
`Fc1cc(CNc2ccc3[nH]nc(/C=C/c4ccccn4)c3c2)cc(C(F)(F)F)c1` [DYX-414, (E)-N-(3-fluoro-5-(trifluoromethyl)benzyl)-3-(2-(pyridin-2-yl)vinyl)-1H-indazol-5-amine]: the half-inhibitory concentration (IC50) on BaF3-CD74-NTRK1 turned out to be 196 nM; against BaF3-ETV6-NTRK2, 2520 nM; at BaF3-ETV6-NTRK3, 1180 nM.
Take `Fc1cc(Br)cc(CNc2ccc3[nH]nc(/C=C/c4ccccn4)c3c2)c1` [DYX-415, (E)-N-(3-bromo-5-fluorobenzyl)-3-(2-(pyridin-2-yl)vinyl)-1H-indazol-5-amine]: the half-maximal inhibitory concentration (IC50) is 50.8 nM on BaF3-CD74-NTRK1, 510 nM against BaF3-ETV6-NTRK2 and 156 nM against BaF3-ETV6-NTRK3.
The matching figures for `Fc1ccc(Cl)c(CNc2ccc3[nH]nc(/C=C/c4ccccn4)c3c2)c1` [DYX-416, (E)-N-(2-chloro-5-fluorobenzyl)-3-(2-(pyridin-2-yl)vinyl)-1H-indazol-5-amine]: 21 nM, 88.7 nM and 34.3 nM.
On to `Fc1ccc(CNc2ccc3[nH]nc(/C=C/c4ccccn4)c3c2)cc1` [DYX-417, (E)-N-(4-fluorobenzyl)-3-(2-(pyridin-2-yl)vinyl)-1H-indazol-5-amine], for which the concentration for half-maximal inhibition (IC50) was 158 nM against BaF3-CD74-NTRK1, 2530 nM on BaF3-ETV6-NTRK2 and 579 nM on BaF3-ETV6-NTRK3.
Regarding `COc1ccc(F)cc1CNc1ccc2[nH]nc(/C=C/c3ccccn3)c2c1` [DYX-418, (E)-N-(5-fluoro-2-methoxybenzyl)-3-(2-(pyridin-2-yl)vinyl)-1H-indazol-5-amine], the IC50 came to 7.6 nM against BaF3-CD74-NTRK1, 41 nM on BaF3-ETV6-NTRK2 and 16.2 nM on BaF3-ETV6-NTRK3.
Consider `Fc1cncc(CNc2ccc3[nH]nc(/C=C/c4ccccn4)c3c2)c1` [DYX-419, (E)-N-((5-fluoropyridin-3-yl)methyl)-3-(2-(pyridin-2-yl)vinyl)-1H-indazol-5-amine], for which the IC50 worked out at 2.4 nM against BaF3-CD74-NTRK1, 11.9 nM on BaF3-ETV6-NTRK2 and 4 nM against BaF3-ETV6-NTRK3.
On to `Cc1ccccc1/C=C/c1n[nH]c2ccc(Cc3cc(F)cc(F)c3)cc12` [Example D01F08, (E)-5-(3,5-difluorobenzyl)-3-(2-methylstyryl)-1H-indazole], for which the IC50 is 112 nM against BaF3-CD74-NTRK1, 400 nM on BaF3-ETV6-NTRK2 and 158 nM against BaF3-ETV6-NTRK3.
The like results for `Fc1cc(F)cc(Cc2ccc3[nH]nc(/C=C/c4ccccc4C(F)(F)F)c3c2)c1` [Example D01F11] were, in that order, 12.9 nM, 159 nM and 25.6 nM.
The matching figures for `Fc1cc(Cl)cc(Cc2ccc3[nH]nc(/C=C/c4ccccn4)c3c2)c1` [Example D02F01, (E)-5-(3-chloro-5-fluorobenzyl)-3-(2-(pyridin-2-yl)vinyl)-1H-indazole]: 204 nM, 362 nM and 151 nM.
Regarding `COc1cc(F)cc(Cc2ccc3[nH]nc(/C=C/c4ccccn4)c3c2)c1` [Example D05F01, (E)-5-(3-fluoro-5-methoxybenzyl)-3-(2-(pyridin-2-yl)vinyl)-1H-indazole], the 50% inhibitory concentration (IC50) came out at 203 nM on BaF3-CD74-NTRK1, 462 nM on BaF3-ETV6-NTRK2 and 367 nM against BaF3-ETV6-NTRK3.
Regarding `Clc1cc(Cl)cc(Cc2ccc3[nH]nc(/C=C/c4ccccn4)c3c2)c1` [Example D06F01, (E)-5-(3,5-dichlorobenzyl)-3-(2-(pyridin-2-yl)vinyl)-1H-indazole], the IC50 was 564 nM at BaF3-CD74-NTRK1, above 10000 nM at BaF3-ETV6-NTRK2 and 851 nM against BaF3-ETV6-NTRK3.
`Cc1cc(C)cc(Cc2ccc3[nH]nc(/C=C/c4ccccn4)c3c2)c1` [Example D07F01, (E)-5-(3,5-dimethylbenzyl)-3-(2-(pyridin-2-yl)vinyl)-1H-indazole]: the values for the 50% inhibitory concentration (IC50) on BaF3-CD74-NTRK1, at BaF3-ETV6-NTRK2 and on BaF3-ETV6-NTRK3 were 2310 nM, 3020 nM and 2040 nM, respectively.
The like results for `COc1ccc(F)cc1Cc1ccc2[nH]nc(/C=C/c3ccccn3)c2c1` [Example D09F01, (E)-5-(5-fluoro-2-methoxybenzyl)-3-(2-(pyridin-2-yl)vinyl)-1H-indazole] were, in that order, 40.6 nM, 56.1 nM and 18.1 nM.
As to `Cn1cc(/C=C/c2n[nH]c3ccc(NS(=O)(=O)c4cc(F)cc(F)c4)cc23)cn1` [Example D5217, (E)-3,5-difluoro-N-(3-(2-(1-methyl-1H-pyrazol-4-yl)vinyl)-1H-indazol-5-yl)benzenesulfonamide], the IC50 against BaF3-CD74-NTRK1 was determined as 90.9 nM; on BaF3-ETV6-NTRK2, 171 nM; on BaF3-ETV6-NTRK3, 125 nM.

A word on the IC50: it is the midpoint of a concentration-inhibition curve. A higher IC50 goes with lower potency.
